According to US20240100076A1, “METHODS AND COMPOSITIONS FOR TREATING NEURODEGENERATIVE DISEASES” (Augusta University Research Institute, Inc., priority 2021, published 2024):
Entries after “also recorded” stand apart in the source; their conditions may differ.

Tests used:
5XFAD mice [1] = test: Novel object recognition test in 5XFAD mice; format: in vivo, mouse; settings: intranasal 5 mg/kg/day for 8 weeks (combination: GD3 4 weeks, GM1 4 weeks), 2-month-old 5XFAD mice, n=3
Description: FIGS. 9A and 9B illustrate the memory function of intranasal ganglioside treatments. FIG. 9A is a schematic diagram showing the experimental procedure of novel object recognition test. […] Each mouse was placed in an arena, with two identical objects placed at each end of the arena. After 5 min of investigation, mice were returned to their home cage. 24 hours later, one test object was replaced with a novel object, and animals were allowed 5 min for investigation. The time spent exploring each object was recorded. Percentages of exploration time of novel object (memory) are shown in the columns (n=3).
Gangliosides (5 mg/kg/day), GD3, GM1, or GD3-GM1 (GD3 for 4 weeks and GM1 for 4 week) were administered into 2-month-old 5XFAD mice for 8 weeks. To assess the effect of intranasal ganglioside treatment on cognitive function, mice were tested using the novel object recognition test (FIG. 9A). […] These findings indicate that intranasal ganglioside has an important role to enhance hippocampal-dependent learning and memory.

VDAC1 = VDAC1 expression in PD mouse brain; format: in vivo; settings: intranasal 5 mg/kg/day for 28 days
Description: (§1) The acquisition, care, and experimental treatment of animals used in this study were in compliance with the NIH guidelines as published in the Guide for the Care and Use of Laboratory Animals. Gangliosides (GD3 or GM1; 5 mg/kg/day) were infused intranasally (Hanson, et al., J. Vis. Exp. (74) (2013) doi.org/10.3791/4440.) with a small pipette (each […] into the right and left nares twice, or […] per day) into 8-month-old WT (C57B6/J), A53T PD, and GM2S-KO mice daily for 7-28 days. GD3 and GM1 used in this study were isolated from either bovine buttermilk or brains by established procedures (Ariga, et al., J. Biol. Chem. 269, 2667-2675 (1994), Ledeen and Yu, Methods Enzymol. 83, 139-191 (1982), Ren, et al., J. Biol. Chem. 267, 12632-12638 (1992)). Gangliosides, being amphipathic, were easily dissolved in saline. The placebo group received saline infusions. At first, to provide direct evidence for ganglioside administration into brain, mice totally deficient in GM1 (8-month-old GM2S-KO mice) were intranasally administered GM1 (0.5 or 5 mg/kg/day) for 7 days. Brain-delivered GM1 was analyzed by immunohistochemistry and TLC. After confirmation that ganglioside reached the brain of GM2S-KO mice by the intranasal route, 8-month-old A53T PD mice were utilized for ganglioside treatments (28 days). […]

aSyn = molecular target: T1, aSyn (Homo sapiens, UniProt P37840, A53T); test: aSyn levels in A53T PD mouse brain after intranasal gangliosides; format: in vivo; settings: intranasal 5 mg/kg/day for 28 days, 8-month-old A53T PD mice
T1 construct: tissue The Jackson Laboratory 006823; host or cells: brain / substantia nigra of A53T PD transgenic mice
Description: as §1

5XFAD mice [2] = test: Buried pellet test (olfactory function) in 5XFAD mice; format: in vivo, mouse; settings: intranasal 5 mg/kg/day for 8 weeks (combination: GD3 4 weeks, GM1 4 weeks), n=3
Description: To detect olfaction deficiency, the buried pellet test was assessed (FIG. 10A). Bedding tips were set to 3 cm height. The time until mice uncover the food pellet was measured. […] It is believed that GD3 maintains stemness and inhibits further neuronal differentiation such as olfactory neurons. […] The buried pellet test, which relies on the animal's natural tendency to use olfactory cues for foraging, is used to confirm ability to smell (FIG. 10A). The time until mice uncover the food pellet in bedding tips was measured. […] Thus, GD3 has important role in olfactory function (FIG. 12).

5XFAD mice [3] = test: Whole-body dual-energy X-ray absorptiometry (DXA) in 5XFAD mice; format: in vivo, mouse; settings: intranasal, 8 weeks (combination 4 + 4 weeks)
Description: Bone loss often accelerates with neurodegenerative diseases and during aging. Protecting from bone loss would be complementary to treatments for neurodegenerative diseases. Body composition analyses were measured by dual-energy X-ray absorptiometry (DXA; Kubtec Digimus, KUB Technologies, Stratford, CT, USA). Bone area (cm2), Bone mineral content (BMC, grams) and bone mineral density (BMD, g/cm2) were calculated for the whole body (FIGS. 11A-11C) using the manufacturer's analysis software (Kubtec Digimus). […] Increasing bone density in patients with neurodegenerative diseases, would decrease risk of fracture and increase the quality of life.

NSC pools in DG and SVZ = settings: icv by micro-osmotic pump, 5 mg/kg/day for 7 days, GD3S-KO mouse; cited from earlier work
5XFAD mouse brain = settings: icv 5 mg/kg/day for 7 days; cited from earlier work
[4] = system: hippocampal NSC (Sox2 positive cell); test: SOX2 positive NSCs in hippocampus of PD mouse brain; format: in vivo; settings: intranasal 5 mg/kg/day for 28 days (combination: GD3 2 weeks, then GM1 2 weeks)
Description: as §1

TH = TH expression in substantia nigra of GM2S-KO mouse; format: in vivo; settings: intranasal 5 mg/kg/day for 28 days, 8 months old GM2S-KO mouse
Description: as §1

[5] = system: tyrosine hydroxylase (TH); test: TH expression at substantia nigra in PD mouse brain; format: in vivo; settings: intranasal 5 mg/kg/day for 28 days
Description: as §1

GM2S = GM2S gene expression in PD mouse brain; format: in vivo; settings: intranasal 5 mg/kg/day for 28 days
Description: as §1

Nurr1 = test: Expression and nuclear localization of Nurr1 in substantia nigra pars compacta of A53T PD mouse; format: in vivo; settings: intranasal 5 mg/kg/day for 28 days
Description: as §1

Neuro 2a cells = test: TH mRNA expression in Neuro 2a cells (qPCR); format: cell-based, mouse; settings: 5 mM ganglioside, 24 h
Description: (§2) Mouse Neuro-2a neuroblastoma cells (ATCC, Manassas, VA, USA, CCL-131) were maintained in Dulbecco's modified Eagle's medium supplemented with 10% fetal bovine serum, 2 mM glutamine, and penicillin/streptomycin at 37° C., 5% CO2.
Total RNA samples were isolated from substantia nigra of mouse brains or cultured Neuro 2a cells using TRIzol reagent (Life Technologies from Thermo Fisher Scientific). Neuro 2a cells were untreated or treated with 5 mM GD3 or GM1 in B27-supplemented Neuro-basal-A medium for 24 h. cDNAs were synthesized based on the total RNAs as templates using MultiScribe reverse transcriptase (Applied Biosystems, Waltham, MA, USA). qPCR was performed with run RT2 SYBR Green qPCR master mix (QIAGEN, Hilden, Germany) on the CFX96 system (Bio-Rad, Hercules, CA, USA). The relative expression levels of TH were normalized to the actin transcript level. The normalized value from control (WT+saline, or no treated cells) is defined as 1.0. The following primers were used: TH forward, 5′-CACTATGCCCACCCCCAG-3′ (SEQ ID NO:1), reverse: 5′-CGCCGTCCAATGAACCTT-3′ (SEQ ID NO:2); actin forward, 5′-[…]-3′ (SEQ ID NO:3), reverse, 5′-[…]-3′ (SEQ ID NO:4).

TH gene promoter = test: ChIP assay on TH gene promoter in Neuro 2a cells; format: cell-based, mouse; settings: 5 mM ganglioside, 24 h
Description: as §2
ChIP assays were performed on cell lysates as previously described.31,32,76 Briefly, Neuro 2a cells, untreated or treated with 5 mM GD3 or GM1 for 24 h, were incubated in 1% PFA for 10 min at ambient temperature to crosslink the interacting partners. Cells with the cross-linked complexes were subjected to lysis by sonication with six 20-s pulses at the power scale 7 controlled by a sonicator (Sonic dismembrator model 100, Fisher Scientific). After centrifugation at 15,000×g for 10 min, the supernatants were collected for the following experiments. Immunoprecipitation was carried out with the following specific antibodies bound on protein G-conjugated magnetic beads (Millipore): anti-acetylated histone H3 (Millipore), anti-Nurr1 (R&D Systems), or anti-PITX3 (Thermo Fisher Scientific) antibodies. The amounts of the co-precipitated DNA fragments of TH promoter (+0), the Nurr1 binding site on the TH promoter (TH-NBS), and the PITX3 binding site on TH promoter (TH-PBS) were analyzed by qPCR. After normalization against GAPDH, the value of no treated cells was defined as 1.0. The following primers were used: TH forward, 5′-[…]-3′ (SEQ ID NO:5), reverse, 5′-[…]-3′ (SEQ ID NO:6); TH NBS forward, 5′-[…]-3′ (SEQ ID NO:7), reverse, 5′-[…]-3′ (SEQ ID NO:8); TH PBS forward, 5′-[…]-3′ (SEQ ID NO:9), reverse, 5′-[…]-3′ (SEQ ID NO:10); GAPDH forward, 5′-[…]-3′ (SEQ ID NO:11), reverse, 5′-TCAGTTCGGAG CCCACACGC-3′ (SEQ ID NO:12).

| Substance | memory function (exploration time of novel object) (5XFAD mice [1]) | VDAC1 expression (VDAC1) | aSyn levels / aSyn accumulation (aSyn) | olfactory function (time to uncover the food pellet) (5XFAD mice [2]) | bone area (5XFAD mice [3]) | bone mineral content (5XFAD mice [3]) | bone mineral density (5XFAD mice [3]) | NSC pools in DG and SVZ (NSC pools in DG and SVZ) | SOX2-expressing cells in DG (5XFAD mouse brain) | hippocampal NSC (Sox2 positive cell) number [4] | TH expression in substantia nigra of GM2S-KO mouse (TH) | TH expression at substantia nigra [5] | expression of GM2S (GM2S) | expression and nuclear localization of Nurr1 (Nurr1) | TH expression (mRNA) (Neuro 2a cells) | BrdU+/doublecortin+ (DCX+) newly generated immature neurons (5XFAD mouse brain) | acetylated histone H3 on TH gene promoter (ChIP) (TH gene promoter; anti-AcH3) | recruitment of Nurr1 on the TH promoter region (ChIP) (TH gene promoter; anti-Nurr1) | recruitment of Pitx3 on the TH promoter (ChIP) (TH gene promoter; anti-Pitx3) |
| --- | --- | --- | --- | --- | --- | --- | --- | --- | --- | --- | --- | --- | --- | --- | --- | --- | --- | --- | --- |
| monosialodihexosylganglioside [GD3] | increased memory function | significantly enhance the expression | partially inhibits | could not enhance olfactory function | increased | increased | increased | augments NSC pools in DG and SVZ | augments self-renewal and multipotent marker, SOX2-expressing cells | partially restored hippocampal NSC (Sox2 positive cell) number |  |  |  |  |  |  |  |  |  |
| monosialotetrahexosylganglioside [GM1] | increased memory function | significantly enhance the expression | strongly inhibits; also recorded: reduced aSyn levels | enhance olfactory function | increased | increased | increased |  |  |  | restore the normal TH expression | dramatically restored TH expression | promoted expression of GM2S | restored | dramatically increased the TH expression | increases BrdU+/doublecortin+ (DCX+) newly generated immature neurons | augmentation of acetylated histone H3 | remarkably recruited | also recruited Pitx3 |
